{"source": "patent US20010005721A1", "about": "“Heel crack healing composition and method therefor” (priority 1998, published 2001)", "key": {"[1]": {"test_system": "cracks upon the heel and foot", "assay": "Trial Study Series A: active ingredient studies 1-4"}}, "data": [{"smiles": "C[C@]12CCC(=O)C=C1CC[C@@H]1[C@@H]2[C@@H](O)C[C@@]2(C)[C@H]1CC[C@]2(O)C(=O)CO", "note": "[Hydrocortisone]", "values": [{"measurement": "effectiveness", "setting": "[1]; hydrocortisone concentration about 0.5% or more", "result": "most effective concentrations"}, {"measurement": "healing speed", "setting": "[1]; hydrocortisone concentration greater than about 0.75%", "result": "promote a faster healing"}, {"measurement": "effectiveness", "setting": "[1]; hydrocortisone concentration less than about 0.25%", "result": "little worthwhile effect"}, {"measurement": "effectiveness (healing time)", "setting": "[1]; hydrocortisone concentration less than about 0.5%", "result": "generally less effective, having a lengthened healing time"}]}, {"smiles": "O=C(O)c1ccccc1O", "note": "[Salicylic acid]", "values": [{"measurement": "effectiveness", "setting": "[1]; salicylic acid concentration about 4%", "result": "most effective concentration"}, {"measurement": "effectiveness", "setting": "[1]; salicylic acid concentration about 5%", "result": "also an effective concentration"}, {"measurement": "effectiveness / excessive exfoliation", "setting": "[1]; salicylic acid concentration about 8-9%", "result": "not as effective due to excessive exfoliation"}, {"measurement": "effectiveness (exfoliation, healing time)", "setting": "[1]; salicylic acid concentration less than about 4% in the composition", "result": "generally less effective, promoting less exfoliation and having a lengthened healing time"}, {"measurement": "defoliation versus therapeutic benefit", "setting": "heel cracks; about 10% by weight salicylic acid", "result": "effects of rapid defoliation begin to exceed the therapeutic benefits"}, {"measurement": "effect of raising the salicylic acid component", "setting": "heel cracks; salicylic acid over about 6% or 7% by weight", "result": "negative results characterized not only by a rapid defoliation of the affected areas"}]}, {"smiles": "[O]=[Zn]", "note": "[Zinc oxide]", "values": [{"measurement": "healing of cracks upon the heel and foot", "setting": "[1]; zinc oxide concentration about 3%", "result": "optimal concentration"}, {"measurement": "healing properties of the composition", "setting": "[1]; zinc oxide concentration above about 5%", "result": "does not appear to affect the healing properties"}, {"measurement": "healing", "setting": "[1]; zinc oxide concentration less than about 1%", "result": "some slight decrease in the healing"}]}]}
